Results reported in paper PMC10997755, “Discovery of a small-molecule inhibitor that traps Polθ on DNA and synergizes with PARP inhibitors” (Nature Communications, 2024).
Where “and” joins values, the source holds several entries; their conditions need not be identical. Equal entries are not always repeated. Entries after “also recorded” stand apart in the source; their conditions may differ.

Columns and labels:
Polθ-pol = target: T1, Polθ-pol (Homo sapiens, UniProt O75417); assay: Cy5 fluorescence Polθ-pol DNA synthesis (strand displacement) IC50 assay; format: biochemical
T1 construct: purified recombinant human Polθ-pol (comprising amino acid residues 1792–2590); made in house
T1 sequence (O75417 1792-2590): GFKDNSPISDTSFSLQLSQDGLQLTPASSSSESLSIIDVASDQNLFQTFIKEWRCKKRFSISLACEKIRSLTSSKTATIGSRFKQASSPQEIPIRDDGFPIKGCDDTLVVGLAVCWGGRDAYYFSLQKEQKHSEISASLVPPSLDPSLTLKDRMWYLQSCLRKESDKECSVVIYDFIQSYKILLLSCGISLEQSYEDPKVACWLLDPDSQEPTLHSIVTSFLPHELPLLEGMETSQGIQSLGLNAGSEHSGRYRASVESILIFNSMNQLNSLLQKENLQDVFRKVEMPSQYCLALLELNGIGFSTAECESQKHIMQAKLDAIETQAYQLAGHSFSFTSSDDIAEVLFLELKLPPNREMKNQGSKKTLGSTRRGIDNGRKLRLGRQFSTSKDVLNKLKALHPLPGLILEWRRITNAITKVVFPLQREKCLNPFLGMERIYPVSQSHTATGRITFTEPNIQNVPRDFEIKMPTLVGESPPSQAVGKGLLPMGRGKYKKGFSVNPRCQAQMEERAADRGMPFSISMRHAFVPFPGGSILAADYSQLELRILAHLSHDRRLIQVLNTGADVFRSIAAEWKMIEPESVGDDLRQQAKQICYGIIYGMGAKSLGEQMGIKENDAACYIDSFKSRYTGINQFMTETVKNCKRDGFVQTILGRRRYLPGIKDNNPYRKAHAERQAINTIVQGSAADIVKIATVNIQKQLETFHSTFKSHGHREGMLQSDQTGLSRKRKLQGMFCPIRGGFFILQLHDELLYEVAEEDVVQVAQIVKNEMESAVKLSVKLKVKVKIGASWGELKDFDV
Outline: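 Recombinant human Polθ-pol (aa 1792–2590, 5 nM) extends 60 nM Cy5/quencher primer-template with 50 uM dNTPs in 25 mM Tris pH 7.8, 10 mM MgCl2, 2.5% DMSO at 37 °C. After 18 min, stopped with 20 mM EDTA; Cy5 fluorescence read, 7-point series in triplicate, inhibition from the mean.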

LogP = format: physicochemical; conditions: method not stated
DLD1 BRCA2 -/- cells = assay: Clonogenic assay; format: cell-based; conditions: colony survival, versus BRCA2-WT
Outline: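 Cells seeded at low density (300–1000 per well, by plate size and genotype), medium changed every 2 days, colonies grown 10–12 days. Fixed in water:ethanol:acetic acid, stained with 0.5% crystal violet, then counted; IC50 from ≥3 independent experiments, mean ± SEM.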

[1] = 10 μM compound, 5 nM PolQ, 60 nM DNA, 18 min

CN(C(=O)Oc1ccc(C(F)(F)F)cc1C(F)(F)F)c1ccc(F)cc1 [MC160385]
improved potency relative to hit MC28003 (Polθ-pol): ~ 18 fold
raw signal, Positive Control, Average (Polθ-pol; [1]): 21.00
raw signal, Positive Control, Trial 1-3 (Polθ-pol; [1]): 20.96 and 21.46 and 20.58
Cy5 fluorescence, Average of Trial 1-3 (Polθ-pol; MC160385 0.0014 μM, 5 nM PolQ): 363.79
activity at 0.0041 µM (Polθ-pol; MC160385 0.0041 μM): 77.8%
inhibition at 0.0041 µM (Polθ-pol; MC160385 0.0041 μM): 22.2%
Cy5 fluorescence, Average of Trial 1-3 (Polθ-pol; MC160385 0.0041 μM, 5 nM PolQ): 309.29
activity at 0.0123 µM (Polθ-pol; MC160385 0.0123 μM): 38.7%
inhibition at 0.0123 µM (Polθ-pol; MC160385 0.0123 μM): 61.3%
Cy5 fluorescence, Average of Trial 1-3 (Polθ-pol; MC160385 0.0123 μM, 5 nM PolQ): 203.69
activity at 0.037 µM (Polθ-pol; MC160385 0.0370 μM): 3.23%
inhibition at 0.037 µM (Polθ-pol; MC160385 0.0370 μM): 96.8%
Cy5 fluorescence, Average of Trial 1-3 (Polθ-pol; MC160385 0.0370 μM, 5 nM PolQ): 109.39
activity at 0.1111 µM (Polθ-pol; MC160385 0.1111 μM): -2.07%
inhibition at 0.1111 µM (Polθ-pol; MC160385 0.1111 μM): 102%
Cy5 fluorescence, Average of Trial 1-3 (Polθ-pol; MC160385 0.1111 μM, 5 nM PolQ): 94.78
activity at 0.3333 µM (Polθ-pol; MC160385 0.3333 μM): -2.9%
inhibition at 0.3333 µM (Polθ-pol; MC160385 0.3333 μM): 103%
Cy5 fluorescence, Average of Trial 1-3 (Polθ-pol; MC160385 0.3333 μM, 5 nM PolQ): 92.26
activity at 1 µM (Polθ-pol; MC160385 1.0000 μM): -1.58%
inhibition at 1 µM (Polθ-pol; MC160385 1.0000 μM): 102%
Cy5 fluorescence, Average of Trial 1-3 (Polθ-pol; MC160385 1.0000 μM, 5 nM PolQ): 95.83
Positive Control fluorescence, Average (Polθ-pol; MC160385 2 μM, sheet Fig. 1 b): 100.15
Positive Control fluorescence, Average (Polθ-pol; MC160385 10 μM, 5 nM PolQ, 18 min, sheet Fig. 1 g): 33.58
IC50 (Polθ-pol; Polθ-pol DNA synthesis, Cy5 fluorescence): 9 nM
logP (LogP): ~5.3
selective killing / synthetic lethality in BRCA2-null DLD1 cells (DLD1 BRCA2 -/- cells): failed to show selective killing; also recorded: failure
